According to PMC8891108, “Development and characterization of anti-fibrotic natural compound similars with improved effectivity” (Basic Research in Cardiology, 2022):

What was measured:
Assay type in all cases: cell-based
[1] = test system: human living myocardial slices; experiment: Ex vivo human living myocardial slices, qPCR gene expression; details: 48 h
Description: Myocardial slices were generated from human left ventricular heart specimens taken from failing hearts at the time of transplantation. Tissue was obtained from the Clinic for Cardiac, Thoracic, Transplant and Vascular Surgery at the Hannover Medical School (MHH), Hannover, Germany. Patients provided informed consent to the scientific use of the explanted tissue.
The preparation and culture of myocardial slices has been described before. Briefly, human heart specimens were sliced into 300 µm thick slices using a vibrating microtome (Campden Instruments, #7000smz-2) while in ice-cold 30 mM 2,3-butanedione monoxime + 1 mM D-glucose + 10 mM HEPES + 6 mM KCl + 140 mM NaCl + 1 mM MgCl2 + 1.8 mM CaCl2 (cardioplegic Tyrode’s solution), before being trimmed into approx. 7 × 7 mm pieces of aligned muscle fibres.
After 48 h in culture, myocardial slices were frozen in liquid nitrogen and stored at −80 °C for further gene expression analysis.
A mix of forward and reverse primer pairs (10 µM, Eurofins) or 10 × Quantitect Primer Assay (Qiagen, #249900) was used for mRNA. To measure miRNA, RNA was reverse-transcribed using the miRNA TaqMan MicroRNA Reverse Transcription Kit (Applied Biosystems, #4366597) with specific miRNA RT primers (ThermoFisher, #4427975). cDNA was diluted 1:3 with dH2O before qPCR with Absolute Blue qPCR Mix (Abgene, #AB-4136/B) and the specific Taqman probes (ThermoFisher, #4427975). Runs were performed in ViiA7 (Applied Biosystems) or QuantStudio 7 Flex (Applied Biosystems). Real-time qPCR data were analysed as described elsewhere.

[2] = test system: human cardiac fibroblasts (HCF); experiment: nCounter Fibrosis Panel mRNA profiling of HCF; details: 24 h treatment
Procedure: Briefly, 100 ng/5µL isolated total RNA of HCF after 24 h treatment (RIN > 7.5 and […] > 88%) was mixed with the hybridization Master Mix and incubated at 65 °C for 20 h before loading on a nCounter® FLEX (Department of Pathology, Hannover Medical School, Germany). All run files (.RCC) were compiled into a single experiment using the nSolver analysis software. […] Reference genes for normalization were determined by nSolver using all samples (ACAD9, ARMH3, CNOT10, GUSB, MTMR14, NOL7, NUBP1, PGK1, PPIA, RPLP0, see supplemental Fig. 4e, f). We then used the Advanced analysis plugin (v2.0.115) including LOT as confounder variable and BY adjusted p value < 0.05 for identification of central deregulated pathways. Additionally, normalized counts were further analysed with GraphPad Prism using multiple unpaired t tests with FDR ≤ 5% after BKY adjustment and log2 |FC| ≥ 1.

[3] = test system: human cardiac fibroblasts (HCF); experiment: TaqMan Array Human MicroRNA Cards, miRNA deregulation in HCF
Procedure: PCR amplification of array cards was performed as instructed. After quality control of all real-time qPCRs, cT values were exported and all runs were merged into a single excel file. Recommended baseline correction using relative thresholds to correct for varying reconstitution rates of different Taqman probes was not performed. Low-expressed miRNAs with cT > 32 in more than 1 replicate per treatment were excluded from analysis, before samples were normalized to column mean. Multiple unpaired t tests were performed using GraphPad Prism, deregulations were accepted as discoveries if FDR ≤ 1% (using BKY adjustment). As miRNA identifiers were based on miRbase v14, we converted them to the latest v22 for further analysis using miRBaseConverter. 747 sequences could be converted correctly, while the remaining miRNAs were removed from miRbase due to incorrect annotation (e.g. the sequences of hsa-miR-886-3p and hsa-miR-886-5p are part of VTRNA2-1 [44]) or no evidence of human expression.

[4] = test system: human cardiac fibroblasts (HCF); experiment: BrdU incorporation, HCF proliferation (first screen); details: Homo sapiens, Cardiac fibroblast; HCF, 24 h treatment; read-out: Effective conc. (BrdU), EC50 by BrdU assay
Procedure: 96-well plates (TPP) were coated with 0.1% gelatine and seeded with 7500 HCFs/well. After 72 h, medium was exchanged with serial dilutions of compounds in FGM-3 + 1.6% DMSO + 1% 5-bromo-2′-deoxyuridine (BrdU, Roche, #11647229001), prepared in additional plates. After 24 h, cells were washed twice with DPBS (Gibco, #14190144) before incubation with anti-BrdU:POD (Roche, #11647229001) for 60 min (RT). Readout was performed by measurement of absorbance at 370 nm + 490 nm in a Synergy HT (BioTek) microplate reader. […] As validation, HCF were seeded as before, but treated with serial dilutions of compounds after 24 h. […] After 60 min of incubation (37 °C, in the dark), absorbance at 450 nm + 630 nm was measured maintaining 37 °C and analysed as described before.
To assess screening quality, quality acceptance criteria Z′ (Z prime), SW (signal window), S:B (signal-to-background), S:N (signal-to-noise) were determined following. Average Z′ ≥ 0.5 and SW ≥ 2 were required to accept the screening overall, whereas single plates were rejected from analysis if Z′ < 0.3 or SW < 1.

[5] = mean of DMSO minus mean of treatment

Structure (SMILES): O[C@H]1[C@H]2c3cc4c(cc3CN3CCC(=C[C@@H]1O)[C@H]23)OCO4 [Lycorine, lycorine]
- FAP expression (qPCR) [1]: not
- MMP2 expression (qPCR) [1]: not
- deregulation of fibrosis panel genes / pathways [2]: less deregulation (fold-change) compared to the other treatments
- Mean of treatment, hsa-miR-30e-3p-000422 ([3]; cT normalized to column mean): -5.454
- Mean of treatment, hsa-miR-16-000391 ([3]; cT normalized to column mean): -6.115
- Mean of treatment, hsa-miR-28-3p-002446 ([3]; cT normalized to column mean): -2.622
- Mean of treatment, hsa-miR-29a-002112 ([3]; cT normalized to column mean): -7.899
- Mean of treatment, hsa-miR-30a-3p-000416 ([3]; cT normalized to column mean): -5.962
- Mean of treatment, hsa-miR-31#-002113 ([3]; cT normalized to column mean): -6.203
- Mean of treatment, hsa-miR-31-002279 ([3]; cT normalized to column mean): -7.455
- Mean of treatment, hsa-miR-34a#-002316 ([3]; cT normalized to column mean): -2.58
- Mean of treatment, hsa-miR-125a-5p-002198 ([3]; cT normalized to column mean): -3.201
- Mean of treatment, hsa-miR-132-000457 ([3]; cT normalized to column mean): -3.872
- Mean of treatment, hsa-miR-140-3p-002234 ([3]; cT normalized to column mean): -1.119
- Mean of treatment, hsa-miR-151-3p-002254 ([3]; cT normalized to column mean): -5.192
- Mean of treatment, hsa-miR-155-002623 ([3]; cT normalized to column mean): -3.701
- Mean of treatment, hsa-miR-186-002285 ([3]; cT normalized to column mean): -4.072
- Mean of treatment, hsa-miR-191-002299 ([3]; cT normalized to column mean): -6.639
- Mean of treatment, hsa-miR-193b-002367 ([3]; cT normalized to column mean): -4.73
- Mean of treatment, hsa-miR-222#-002097 ([3]; cT normalized to column mean): -3.599
- Mean of treatment, hsa-miR-222-002276 ([3]; cT normalized to column mean): -9.167
- Mean of treatment, hsa-miR-331-000545 ([3]; cT normalized to column mean): -4.63
- Mean of treatment, hsa-miR-339-3p-002184 ([3]; cT normalized to column mean): -0.6811
- Mean of treatment, hsa-miR-342-3p-002260 ([3]; cT normalized to column mean): -3.089
- Mean of treatment, hsa-miR-376a-000565 ([3]; cT normalized to column mean): -1.759
- Mean of treatment, hsa-miR-376c-002122 ([3]; cT normalized to column mean): -3.539
- Mean of treatment, hsa-miR-409-3p-002332 ([3]; cT normalized to column mean): -4.891
- Mean of treatment, hsa-miR-625#-002432 ([3]; cT normalized to column mean): -4.373
- Mean of treatment, hsa-miR-1274B-002884 ([3]; cT normalized to column mean): -9.621
- Difference / ΔCT, hsa-miR-30e-3p-000422 [3, 5]: 0.9633
- Difference / ΔCT, hsa-miR-16-000391 [3, 5]: 0.8517
- Difference / ΔCT, hsa-miR-28-3p-002446 [3, 5]: 0.8307
- Difference / ΔCT, hsa-miR-29a-002112 [3, 5]: 0.8647
- Difference / ΔCT, hsa-miR-30a-3p-000416 [3, 5]: 0.8856
- Difference / ΔCT, hsa-miR-31#-002113 [3, 5]: 0.5519
- Difference / ΔCT, hsa-miR-31-002279 [3, 5]: 0.598
- Difference / ΔCT, hsa-miR-34a#-002316 [3, 5]: 0.8439
- Difference / ΔCT, hsa-miR-125a-5p-002198 [3, 5]: 0.6283
- Difference / ΔCT, hsa-miR-132-000457 [3, 5]: 1.328
- Difference / ΔCT, hsa-miR-140-3p-002234 [3, 5]: 0.7567
- Difference / ΔCT, hsa-miR-151-3p-002254 [3, 5]: 0.604
- Difference / ΔCT, hsa-miR-155-002623 [3, 5]: 1.386
- Difference / ΔCT, hsa-miR-186-002285 [3, 5]: 1.039
- Difference / ΔCT, hsa-miR-191-002299 [3, 5]: 0.8243
- Difference / ΔCT, hsa-miR-193b-002367 [3, 5]: 0.5576
- Difference / ΔCT, hsa-miR-222#-002097 [3, 5]: 1.599
- Difference / ΔCT, hsa-miR-222-002276 [3, 5]: 0.8654
- Difference / ΔCT, hsa-miR-331-000545 [3, 5]: 0.6606
- Difference / ΔCT, hsa-miR-339-3p-002184 [3, 5]: 0.7187
- Difference / ΔCT, hsa-miR-342-3p-002260 [3, 5]: 0.7149
- Difference / ΔCT, hsa-miR-376a-000565 [3, 5]: 1.019
- Difference / ΔCT, hsa-miR-376c-002122 [3, 5]: 0.5396
- Difference / ΔCT, hsa-miR-409-3p-002332 [3, 5]: 0.9354
- Difference / ΔCT, hsa-miR-625#-002432 [3, 5]: 0.6889
- Difference / ΔCT, hsa-miR-1274B-002884 [3, 5]: -0.4297
- EC50 [4]: 2800 nM
